Data from patent US9346770B2, “Compounds having activating effect on subtypes of peroxisome proliferator-activated receptors and its preparation method and uses” (ZHEJIANG HISUN PHARMACEUTICAL CO., LTD., priority 2010, dated 2016).

Assays:
[1] = Acute toxicity (LD50, autopsy); format: in vivo; conditions: orally
Excerpt: In the autopsy, no visible obvious injure was found in main visceral organs, and there was no statistical difference in the change in organ coefficient.

PPARα = PPARα (Homo sapiens (Human), UniProt Q07869); experiment: Nuclear receptor reporter gene (luciferase) screening model, PPARα activation in HepG2 cells; format: cell-based; conditions: for Experiment results (relative activation fold) PPARα: HepG2, solvent control = 1; for EC50: HepG2 reporter gene, 6 concentrations; for activation effect on PPARα receptor (in words): screening results
Excerpt: (§1) Using a reporter gene method, a screening model for screening a nuclear receptor agonist in living cells is designed on the basis of the principal that a nuclear receptor can activate transcription of its downstream gene after being activated. A reporter gene plasmid is constructed, in which the DNA binding sequence for the nuclear receptor (NRE) is inserted at the upstream of a luciferase gene, such that the expression of the luciferase gene is regulated by the nuclear receptor. The reporter gene plasmid is transferred into a cell simultaneously with the nuclear receptor. The nuclear receptor will be activated when a nuclear receptor agonist presents in the cell culture medium. The receptor being activated can induce the expression of the luciferase gene, while the amount of generated luciferase can be determined with its luminescent substrate. In this way, the intensity of activation of the nuclear receptor by the compound can be determined by observing the luminescence intensity. For the calibration of the experimental error caused by factors such as transfection efficiency, amount of inoculated cells, toxicity of the compound, etc, a GFP plasmid is co-transfected simultaneously as the internal reference. In the analysis of the experimental results, the luminescent values tested for all wells are calibrated with GFP values. The experimental results are expressed as relative activation fold, with a value of 1 for the solvent control. The greater the fold is, the higher the activation capacity represents.
(§2) The detailed procedure is described as follows:
(§3) Hepatocarcinoma cell HepG2 (from ATCC, American Type Culture Collection) was cultured in a DMEM medium supplemented with 10% heat-inactivated fetal bovine serum (FBS, Invitogen, Grand Island, N.Y., USA) in a T-75 culture flask (Greiner, Germany) placed in a 5% CO2 incubator at 37° C. and 100% relative humidity.
(§4) On the next day, when the cells in the 96-well culture plate grew up to 50-80% confluency, cell transfection was performed. The cell co-transfection system comprised FuGene6 transfection agent (Roche Molecular Biochemicals, Indianapolis, Ind., U.S.A.) and 60 ng DNA (10 ng hRXR, 10 ng pCMV βGal, 10 ng nuclear receptor expression plasmid RXR/PPARα, δ, γ, 30 ng GFP fluorescence reporter gene plasmid, respectively).
(§5) The cell culture medium was discarded immediately after 24 hours of transfection and replaced by 200 μl fresh DMEM medium containing the test medicament (with 10% FBS treated by activated carbon). The final concentration gradients of the test medicament were 10 μM, 5 μM, 1 μM, 0.1 μM, 0.01 μM, 0.001 μM, and 0 μM. 0.05 μM 2-bromostearic acid (purchased from Sigma, USA) was used as the positive control. The final concentration of DMSO in each well was 0.1%.
(§6) After 24 h treatment with the medicament, the cells were lysed with a lysis solution (Cell Culture Lysis buffer, Promega) and centrifuged, and the supernatant was collected. The supernatant was reacted with a fluorescence assay kit (Promega) and counted by a fluorometer (Ascent Fluoroskan FL reader, Thermo Labsystems, Finland), and the relative intensity of luciferase was determined. For the assay of the β-galactosidase activity used in the experiment as the internal reference (the internal reference for calibrating the transfection efficiency), 50 μl of the supernatant was transferred into a fresh microplate, treated with a Promega kit, and the value was read with a microplate reader at a wavelength of 405 nm (Bio-tech Instruments Inc., Winooski, Vt., USA) (Sauerberg, P.; Olsen, G. S.; Jeppesen, L.; Mogensen, J. P. et al., J. Med. Chem., 2007, 50, 1495-1503).
(§7) In the present screening protocol, it was calculated according to the activation of the receptor by the sample at 6 different concentrations.
(§8) The concentration-activity profile of the effects of a compound was fitted by carrying out iterative computation according to the following formula, and corresponding EC50 was calculated: […]

PPARγ = PPARγ (Homo sapiens (Human), UniProt P37231); experiment: Nuclear receptor reporter gene (luciferase) screening model, PPARγ activation in HepG2 cells; format: cell-based; conditions: for Experiment results (relative activation fold) PPARγ: HepG2, solvent control = 1; for EC50: HepG2 reporter gene, 6 concentrations; for activation effect on PPARγ receptor (in words): screening results
Excerpt: as §1, §2, §3, §4, §5, §6, §7, §8

PPARδ = PPARδ (Homo sapiens (Human), UniProt Q03181); experiment: Nuclear receptor reporter gene (luciferase) screening model, PPARδ activation in HepG2 cells; format: cell-based; conditions: for Experiment results (relative activation fold) PPARδ: HepG2, solvent control = 1; for EC50: HepG2 reporter gene, 6 concentrations; for activation effect on PPARδ receptor (in words): screening results
Excerpt: as §1, §2, §3, §4, §5, §6, §7, §8

PPARδ, sequence (Q03181 whole entry, species assumed): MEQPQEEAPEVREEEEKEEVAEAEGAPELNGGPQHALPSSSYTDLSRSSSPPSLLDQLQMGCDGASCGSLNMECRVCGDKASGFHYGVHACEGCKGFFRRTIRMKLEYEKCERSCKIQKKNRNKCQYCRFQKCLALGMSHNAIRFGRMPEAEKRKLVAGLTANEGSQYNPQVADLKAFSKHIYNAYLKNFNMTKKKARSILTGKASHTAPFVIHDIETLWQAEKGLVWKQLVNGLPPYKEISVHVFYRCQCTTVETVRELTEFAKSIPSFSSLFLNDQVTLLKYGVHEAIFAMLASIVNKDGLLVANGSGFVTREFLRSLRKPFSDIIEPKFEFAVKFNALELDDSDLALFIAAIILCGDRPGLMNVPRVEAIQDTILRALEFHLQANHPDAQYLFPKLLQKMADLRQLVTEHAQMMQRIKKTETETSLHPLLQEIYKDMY
PPARδ, sequence (P19793 whole entry partner, species assumed): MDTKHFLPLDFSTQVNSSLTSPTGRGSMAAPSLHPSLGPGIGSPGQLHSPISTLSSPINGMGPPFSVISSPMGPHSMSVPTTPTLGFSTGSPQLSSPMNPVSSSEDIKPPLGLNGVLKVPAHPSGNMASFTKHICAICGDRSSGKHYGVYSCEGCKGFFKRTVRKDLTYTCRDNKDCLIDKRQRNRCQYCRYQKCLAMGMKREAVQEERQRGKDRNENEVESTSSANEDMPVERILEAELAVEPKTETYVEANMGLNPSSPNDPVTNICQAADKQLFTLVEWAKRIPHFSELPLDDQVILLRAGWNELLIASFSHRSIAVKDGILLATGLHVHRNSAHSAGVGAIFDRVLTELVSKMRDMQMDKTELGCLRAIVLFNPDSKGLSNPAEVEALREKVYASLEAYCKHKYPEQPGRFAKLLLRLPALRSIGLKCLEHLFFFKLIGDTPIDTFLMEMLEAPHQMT
PPARα, sequence (Q07869 whole entry, species assumed): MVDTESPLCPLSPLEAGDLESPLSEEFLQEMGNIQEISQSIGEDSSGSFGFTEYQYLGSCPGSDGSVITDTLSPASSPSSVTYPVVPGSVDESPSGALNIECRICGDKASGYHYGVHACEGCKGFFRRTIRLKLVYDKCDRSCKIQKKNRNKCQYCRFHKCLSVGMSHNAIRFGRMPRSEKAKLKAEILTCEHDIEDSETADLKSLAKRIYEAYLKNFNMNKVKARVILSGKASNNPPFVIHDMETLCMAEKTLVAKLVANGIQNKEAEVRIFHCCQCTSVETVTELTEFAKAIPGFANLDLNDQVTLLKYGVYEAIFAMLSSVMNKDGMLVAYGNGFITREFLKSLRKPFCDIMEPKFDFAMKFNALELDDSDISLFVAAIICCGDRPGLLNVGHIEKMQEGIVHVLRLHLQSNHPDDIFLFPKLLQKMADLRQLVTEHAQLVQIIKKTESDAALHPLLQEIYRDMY
PPARα, sequence (P19793 whole entry partner, species assumed): as the sequence (P19793 whole entry partner, species assumed) above
PPARγ, sequence (P37231 whole entry, species assumed): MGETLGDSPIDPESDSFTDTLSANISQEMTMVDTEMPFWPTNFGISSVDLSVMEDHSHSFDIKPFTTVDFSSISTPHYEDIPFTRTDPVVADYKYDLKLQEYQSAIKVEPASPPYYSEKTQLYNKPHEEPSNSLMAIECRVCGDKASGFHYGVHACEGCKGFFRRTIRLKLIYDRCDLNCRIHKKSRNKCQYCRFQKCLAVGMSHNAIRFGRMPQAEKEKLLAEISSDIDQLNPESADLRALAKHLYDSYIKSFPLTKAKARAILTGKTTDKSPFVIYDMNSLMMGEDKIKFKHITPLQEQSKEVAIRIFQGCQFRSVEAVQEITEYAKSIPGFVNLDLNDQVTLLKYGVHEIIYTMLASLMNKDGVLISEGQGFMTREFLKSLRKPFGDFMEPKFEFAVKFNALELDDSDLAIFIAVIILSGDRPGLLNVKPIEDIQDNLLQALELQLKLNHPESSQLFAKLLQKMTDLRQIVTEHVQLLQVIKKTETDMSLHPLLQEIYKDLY
PPARγ, sequence (P19793 whole entry partner, species assumed): as the sequence (P19793 whole entry partner, species assumed) above

Experiment results (relative activation fold) PPARα (PPARα; 0.001 uM) [fold] | Experiment results (relative activation fold) PPARα (PPARα; 0.01 uM) [fold] | Experiment results (relative activation fold) PPARα (PPARα; 0.1 uM) [fold] | Experiment results (relative activation fold) PPARα (PPARα; 1 uM) [fold] | Experiment results (relative activation fold) PPARα (PPARα; 5 uM) [fold] | Experiment results (relative activation fold) PPARα (PPARα; 10 uM) [fold] | EC50 (PPARα) [nM] | Experiment results (relative activation fold) PPARγ (PPARγ; 0.001 uM) [fold] | Experiment results (relative activation fold) PPARγ (PPARγ; 0.01 uM) [fold] | Experiment results (relative activation fold) PPARγ (PPARγ; 0.1 uM) [fold] | Experiment results (relative activation fold) PPARγ (PPARγ; 1 uM) [fold] | Experiment results (relative activation fold) PPARγ (PPARγ; 5 uM) [fold] | Experiment results (relative activation fold) PPARγ (PPARγ; 10 uM) [fold] | EC50 (PPARγ) [nM] | Experiment results (relative activation fold) PPARδ (PPARδ; 0.001 uM) [fold] | Experiment results (relative activation fold) PPARδ (PPARδ; 0.01 uM) [fold] | Experiment results (relative activation fold) PPARδ (PPARδ; 0.1 uM) [fold] | Experiment results (relative activation fold) PPARδ (PPARδ; 1 uM) [fold] | Experiment results (relative activation fold) PPARδ (PPARδ; 5 uM) [fold] | Experiment results (relative activation fold) PPARδ (PPARδ; 10 uM) [fold] | SMILES | further results
 |  |  |  |  |  |  |  |  |  |  |  |  |  |  |  |  |  |  |  | CN(CCOc1ccc(CC2SC(=O)NC2=O)cc1)c1ccccn1 (stereo not shown) [rosiglitazone] | LD50 [1]: 3000 to 4000 mg/kg
1.33 | 1.45 | 1.37 | 1.58 | 1.98 | 1.91 | 1180 | 1.98 | 2.99 | 3.75 | 3.95 | 3.82 | 4.11 | 4 | 1.57 | 2.44 | 3.61 | 3.69 | 3.57 | 4.64 | CCc1cc(OCCc2nc(-c3ccc(C)cc3)oc2C)ccc1CCC(=O)O [Compound 5] | activation effect on PPARα receptor (in words) (PPARα): better activation effects; activation effect on PPARγ receptor (in words) (PPARγ): better activation effects; EC50 (PPARδ): 7 nM; activation effect on PPARδ receptor (in words) (PPARδ): better activation effects
1.00 | 1.08 | 1.12 | 1.36 | 1.35 | 1.72 | 29 | 1.09 | 1.21 | 1.26 | 1.45 | 1.62 | 2.01 | 13 | 1.07 | 1.12 | 1.19 | 1.40 | 1.33 | 1.80 | CCc1cc(OCCc2nc(-c3ccc(F)cc3)oc2C)ccc1CCC(=O)O [Compound 1, 3-(2-ethyl-4-{2-[2-(4-fluorophenyl)-5-methyloxazol-4-yl]ethoxyl}phenyl)propionic acid] | activation effect on PPARα receptor (in words) (PPARα): better activation effects; activation effect on PPARγ receptor (in words) (PPARγ): better activation effects; EC50 (PPARδ): 29 nM; activation effect on PPARδ receptor (in words) (PPARδ): better activation effects
1.23 | 1.35 | 1.48 | 1.41 | 1.71 | 1.93 | 5250 | 1.38 | 2.29 | 3.72 | 4.75 | 4.29 | 4.24 | 22 | 1.65 | 2.69 | 3.58 | 3.94 | 4.23 | 4.40 | CCc1cc(OCCc2nc(-c3ccc(C#N)cc3)oc2C)ccc1CCC(=O)O [Compound 8] | EC50 (PPARδ): 6 nM
